target: hQC (Homo sapiens (Human), UniProt Q16769); test: QC inhibitor assay (fluorometric/spectrophotometric QC activity assay with inhibitor added); type: biochemical; details: bound
Method: All measurements were performed with a BioAssay Reader HTS-7000Plus for microplates (Perkin Elmer) at 30° C. QC activity was evaluated fluorometrically using H-Gln-βNA. The samples consisted of 0.2 mM fluorogenic substrate, 0.25 U pyroglutamyl aminopeptidase (Unizyme, Høsholm, Denmark) in 0.2 M Tris/HCl, pH 8.0 containing 20 mM EDTA and an appropriately diluted aliquot of QC in a final volume of 250 μl. Excitation/emission wavelengths were 320/410 nm. The assay reactions were initiated by addition of glutaminyl cyclase. QC activity was determined from a standard curve of /3-naphthylamine under assay conditions. One unit is defined as the amount of QC catalyzing the formation of 1 μmol pGlu-βNA from H-Gln-/3NA per minute under the described conditions.
In a second fluorometric assay, QC was activity determined using H-Gln-AMC as substrate. Reactions were carried out at 30° C. utilizing the NOVOStar reader for microplates (BMG labtechnologies). The samples consisted of varying concentrations of the fluorogenic substrate, 0.1 U pyroglutamyl aminopeptidase (Qiagen) in 0.05 M Tris/HCl, pH 8.0 containing 5 mM EDTA and an appropriately diluted aliquot of QC in a final volume of 250 μl. Excitation/emission wavelengths were 380/460 nm. The assay reactions were initiated by addition of glutaminyl cyclase. QC activity was determined from a standard curve of 7-amino-4-methylcoumarin under assay conditions. The kinetic data were evaluated using GraFit software.
This novel assay was used to determine the kinetic parameters for most of the QC substrates. […] Samples consisted of the respective QC substrate, 0.3 mM NADH, 14 mM a-Ketoglutaric acid and 30 U/ml glutamate dehydrogenase in a final volume of 250 μl. Reactions were started by addition of QC and persued by monitoring of the decrease in absorbance at 340 nm for 8-15 min.
The initial velocities were evaluated and the enzymatic activity was determined from a standard curve of ammonia under assay conditions. All samples were measured at 30° C., using either the […]uor Plus or the Sunrise (both from TECAN) reader for microplates. Kinetic data was evaluated using GraFit software.
For inhibitor testing, the sample composition was the same as described above, except for the putative inhibitory compound added. For a rapid test of QC-inhibition, samples contained 4 mM of the respective inhibitor and a substrate concentration at 1 KM. For detailed investigations of the inhibition and determination of K,-values, influence of the inhibitor on the auxiliary enzymes was investigated first. […] The inhibitory constant was evaluated by fitting the set of progress curves to the general equation for competitive inhibition using GraFit software.

Sequence of hQC (Q16769 29-361): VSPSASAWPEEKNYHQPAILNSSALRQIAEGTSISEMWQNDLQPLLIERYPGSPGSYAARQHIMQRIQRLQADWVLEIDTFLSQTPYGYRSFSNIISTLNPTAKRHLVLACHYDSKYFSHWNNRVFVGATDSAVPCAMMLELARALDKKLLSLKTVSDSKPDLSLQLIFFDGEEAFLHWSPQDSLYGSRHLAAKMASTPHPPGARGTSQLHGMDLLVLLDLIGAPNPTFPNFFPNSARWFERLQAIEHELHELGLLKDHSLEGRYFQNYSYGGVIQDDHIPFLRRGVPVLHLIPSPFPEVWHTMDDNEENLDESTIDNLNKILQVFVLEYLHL

IC50, < 10 µM:
c1ccc(CN(Cc2ccccc2)c2ccc3[nH]cnc3c2)cc1 [Example 10, N,N-Dibenzyl-1H-benzo[d]imidazol-5-amine]
CSc1ccc(CNc2ccc3[nH]cnc3c2)cc1 [Example 11, N-(4-(Methylthio)benzyl)-1H-benzo[d]imidazol-5-amine]
N#Cc1ccc(CN(Cc2ccc(C#N)cc2)c2ccc3[nH]cnc3c2)cc1 [Example 19, N,N-Bis(4-cyanobenzyl)-1H-benzo[d]imidazol-5-amine]
Brc1ccc(CN(Cc2ccc(Br)cc2)c2ccc3[nH]cnc3c2)cc1 [Example 27, N,N-Bis(4-bromobenzyl)-1H-benzo[d]imidazol-5-amine]
c1ccc2sc(CN(Cc3nc4ccccc4s3)c3ccc4[nH]cnc4c3)nc2c1 [Example 34, N,N-Bis((benzo[d]thiazol-2-yl)methyl)-1H-benzo[d]imidazol-5-amine]
Cc1ccc2cc(CN(Cc3ccc4nc(C)ccc4c3)c3ccc4[nH]cnc4c3)ccc2n1 [Example 37, N,N-Bis((2-methylquinolin-6-yl)methyl)-1H-benzo[d]imidazol-5-amine]
Cc1c(F)c(F)c(CNc2ccc3[nH]cnc3c2)c(F)c1F [Example 44, N-(2,3,5,6-Tetrafluoro-4-methylbenzyl)-1H-benzo[d]imidazol-5-amine]
Clc1ccc2scc(CNc3ccc4[nH]cnc4c3)c2c1 [Example 49, N-((5-Chlorobenzo[b]thiophen-3-yl)methyl)-1H-benzo[d]imidazol-5-amine]
CSc1ccc(CN(Cc2cc(F)cc(F)c2)c2ccc3[nH]cnc3c2)cc1 [Example 59, N-(3,5-Difluorobenzyl)-N-(4-(methylthio)benzyl)-1H-benzo[d]imidazol-5-amine]
CSc1ccc(CN(Cc2cc(F)c(F)c(F)c2)c2ccc3[nH]cnc3c2)cc1 [Example 60, N-(3,4,5-Trifluorobenzyl)-N-(4-(methylthio)benzyl)-1H-benzo[d]imidazol-5-amine]
CSc1ccc(CN(Cc2c(F)c(F)c(C)c(F)c2F)c2ccc3[nH]cnc3c2)cc1 [Example 62, N-(2,3,5,6-Tetrafluoro-4-methylbenzyl)-N-(4-(methylthio)benzyl)-1H-benzo[d]imidazol-5-amine]
CSc1ccc(CN(Cc2nc3ccccc3s2)c2ccc3[nH]cnc3c2)cc1 [Example 66, N-(4-(Methylthio)benzyl)-N-((benzo[d]thiazol-2-yl)methyl)-1H-benzo[d]imidazol-5-amine]
CCc1ccc(CN(Cc2ccc(SC)cc2)c2ccc3[nH]cnc3c2)cc1 [Example 69, N-(4-(Methylthio)benzyl)-N-(4-ethylbenzyl)-1H-benzo[d]imidazol-5-amine]
CCc1ccc(CN(Cc2cc(F)c(F)c(F)c2)c2ccc3[nH]cnc3c2)cc1 [Example 71, N-(3,4,5-Trifluorobenzyl)-N-(4-ethylbenzyl)-1H-benzo[d]imidazol-5-amine]
CCc1ccc(CN(Cc2ccc(C#N)cc2)c2ccc3[nH]cnc3c2)cc1 [Example 72, N-(4-Cyanobenzyl)-N-(4-ethylbenzyl)-1H-benzo[d]imidazol-5-amine]
CCc1ccc(CN(Cc2nc3ccccc3s2)c2ccc3[nH]cnc3c2)cc1 [Example 74, N-(4-Ethylbenzyl)-N-((benzo[d]thiazol-2-yl)methyl)-1H-benzo[d]imidazol-5-amine]
COc1ccc(CN(Cc2ccc3nsnc3c2)c2ccc3[nH]cnc3c2)cc1 [Example 76, N-(4-Methoxybenzyl)-N-((benzo[c][1,2,5]thiadiazol-6-yl)methyl)-1H-benzo[d]imidazol-5-amine]
Cc1ccc(CN(Cc2ccc(N(C)C)cc2)c2ccc3[nH]cnc3c2)cc1 [Example 78, N-(4-(Dimethylamino)benzyl)-N-(4-methylbenzyl)-1H-benzo[d]imidazol-5-amine]
CN(C)c1ccc(CN(Cc2ccc3nsnc3c2)c2ccc3[nH]cnc3c2)cc1 [Example 81, N-(4-(Dimethylamino)benzyl)-N-((benzo[c][1,2,5]thiadiazol-5-yl)methyl)-1H-benzo[d]imidazol-5-amine]
CCCCN(Cc1ccc(SC)cc1)c1ccc2[nH]cnc2c1 [Example 83, N-(4-(Methylthio)benzyl)-N-butyl-1H-benzo[d]imidazol-5-amine]
COc1ccc(CN(Cc2ccccc2)c2ccc3nc[nH]c3c2)cc1 [Example 86, N-(4-Methoxybenzyl)-N-benzyl-3H-benzo[d]imidazol-5-amine]
COc1ccc(CN(CCCc2ccccc2)c2ccc3nc[nH]c3c2)cc1 [Example 89, N-(4-Methoxybenzyl)-N-(3-phenylpropyl)-3H-benzo[d]imidazol-5-amine]

Reference: US8541596B2, “Inhibitors” (Probiodrug AG, priority 2010, dated 2013)
